ChEMBL document CHEMBL1201862, “PubChem BioAssay data set” (2004)
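Grown in 96-well plates, cells were treated for 48 hours with each compound at five concentrations. Insufficient inhibition: endpoint recorded as highest concentration tested. GI50 is the concentration that inhibits growth by half.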 The source made the active and inactive calls. Rule as the data show it: active = GI50 up to about 1.1 µM and inactive = higher.

How the values were obtained:
Assay in all cases: NCI tumour cell line growth inhibition, 48 h
[1] = test system: 786-0
[2] = test system: A498
[3] = test system: A549
[4] = test system: ACHN
[5] = test system: BT-549
[6] = test system: CAKI-1
[7] = test system: CCRF-CEM
[8] = test system: COLO 205
[9] = test system: DU-145
[10] = test system: EKVX
[11] = test system: HCC 2998
[12] = test system: HCT-116
[13] = test system: HCT-15
[14] = test system: HL-60
[15] = test system: HOP-62
[16] = test system: HOP-92
[17] = test system: HT-29
[18] = test system: Hs-578T
[19] = test system: IGROV-1
[20] = test system: K562
[21] = test system: KM12
[22] = test system: LOX IMVI
[23] = test system: M14
[24] = test system: MCF7
[25] = test system: MDA-MB-231
[26] = test system: MDA-MB-435
[27] = test system: MDA-N
[28] = test system: MOLT-4
[29] = test system: Malme-3M
[30] = test system: NCI-H226
[31] = test system: NCI-H23
[32] = test system: NCI-H460
[33] = test system: NCI-H522
[34] = test system: NCI/ADR-RES
[35] = test system: OVCAR-3
[36] = test system: OVCAR-4
[37] = test system: OVCAR-5
[38] = test system: OVCAR-8
[39] = test system: PC-3
[40] = test system: RPMI-8226
[41] = test system: RXF 393
[42] = test system: SF-268
[43] = test system: SF-295
[44] = test system: SF-539
[45] = test system: SK-MEL-28
[46] = test system: SK-MEL-2
[47] = test system: SK-MEL-5
[48] = test system: SK-OV-3
[49] = test system: SN12C
[50] = test system: SNB-19
[51] = test system: SNB-75
[52] = test system: SW-620
[53] = test system: T47D
[54] = test system: TK-10
[55] = test system: U-251
[56] = test system: UACC-257
[57] = test system: UACC-62
[58] = test system: UO-31
[59] = test system: SR

With COc1cccc(/C=C/c2ccnc3ccccc23)c1OC the GI50 [1] was > 10 µM (inactive), the GI50 [2] was > 10 µM (inactive) and the GI50 [3] was > 10 µM (inactive). For the same compound, the GI50 [4] was > 10 µM (inactive), the GI50 [5] was > 10 µM (inactive) and the GI50 [6] was > 10 µM (inactive). The GI50 [7] was 4.6 µM (inactive), the GI50 [8] was > 10 µM (inactive) and the GI50 [9] was > 10 µM (inactive). For the same compound, the GI50 [10] was 9.66 µM (inactive), the GI50 [11] was > 10 µM (inactive) and the GI50 [12] was > 10 µM (inactive). The GI50 [13] was > 10 µM, the GI50 [14] was > 10 µM (inactive) and the GI50 [15] was > 10 µM (inactive). The GI50 [16] was 1.08 µM (active), the GI50 [17] was 9.86 µM (inactive) and the GI50 [18] was > 10 µM (inactive). The GI50 [19] was > 10 µM (inactive), the GI50 [20] was 4.7 µM (inactive) and the GI50 [21] was > 10 µM (inactive). For the same compound, the GI50 [22] was 4.79 µM (inactive), the GI50 [23] was > 10 µM (inactive) and the GI50 [24] was > 10 µM (inactive). For the same compound, the GI50 [25] was > 10 µM (inactive), the GI50 [26] was 2.86 µM (inactive) and the GI50 [27] was 4.94 µM (inactive). The GI50 [28] was 3.89 µM (inactive), the GI50 [29] was > 10 µM (inactive) and the GI50 [30] was > 10 µM (inactive). The GI50 [31] was 9.66 µM (inactive), the GI50 [32] was > 10 µM (inactive) and the GI50 [33] was > 10 µM (inactive). The GI50 [34] was 2.67 µM (inactive), the GI50 [35] was 7.78 µM (inactive) and the GI50 [36] was > 10 µM (inactive). For the same compound, the GI50 [37] was > 10 µM (inactive), the GI50 [38] was > 10 µM (inactive) and the GI50 [39] was > 10 µM (inactive). For the same compound, the GI50 [40] was 2.27 µM (inactive), the GI50 [41] was > 10 µM (inactive) and the GI50 [42] was > 10 µM (inactive). The GI50 [43] was > 10 µM (inactive), the GI50 [44] was > 10 µM (inactive) and the GI50 [45] was > 10 µM (inactive). For the same compound, the GI50 [46] was > 10 µM (inactive), the GI50 [47] was 6.89 µM (inactive) and the GI50 [48] was > 10 µM (inactive). The GI50 [49] was > 10 µM (inactive), the GI50 [50] was > 10 µM (inactive) and the GI50 [51] was > 10 µM (inactive). The GI50 [52] was > 10 µM (inactive), the GI50 [53] was 8.17 µM (inactive) and the GI50 [54] was > 10 µM (inactive). The GI50 [55] was > 10 µM (inactive), the GI50 [56] was > 10 µM (inactive) and the GI50 [57] was > 10 µM (inactive). The GI50 [58] was > 10 µM (inactive).
Cc1nc2sc3ccccc3n2c(=O)c1/N=N/c1ccc(Cl)cc1 was tested, and the GI50 [1] was > 100 µM (inactive), the GI50 [3] was > 100 µM (inactive) and the GI50 [4] was > 100 µM (inactive). The GI50 [5] was > 100 µM (inactive), the GI50 [6] was > 100 µM (inactive) and the GI50 [7] was > 100 µM (inactive). For the same compound, the GI50 [8] was > 100 µM (inactive), the GI50 [9] was > 100 µM (inactive) and the GI50 [10] was > 100 µM (inactive). For the same compound, the GI50 [12] was > 100 µM (inactive), the GI50 [13] was > 100 µM and the GI50 [14] was > 100 µM (inactive). The GI50 [15] was > 100 µM (inactive), the GI50 [16] was > 100 µM (inactive) and the GI50 [17] was > 100 µM (inactive). For the same compound, the GI50 [18] was > 100 µM (inactive), the GI50 [19] was > 100 µM (inactive) and the GI50 [20] was > 100 µM (inactive). The GI50 [21] was > 100 µM (inactive), the GI50 [22] was > 100 µM (inactive) and the GI50 [23] was > 100 µM (inactive). For the same compound, the GI50 [24] was > 100 µM (inactive), the GI50 [25] was 83.9 µM (inactive) and the GI50 [26] was > 100 µM (inactive). For the same compound, the GI50 [27] was > 100 µM (inactive), the GI50 [28] was > 100 µM (inactive) and the GI50 [29] was > 100 µM (inactive). For the same compound, the GI50 [30] was > 100 µM (inactive), the GI50 [31] was > 100 µM (inactive) and the GI50 [32] was > 100 µM (inactive). The GI50 [33] was > 100 µM (inactive), the GI50 [34] was > 100 µM (inactive) and the GI50 [35] was > 100 µM (inactive). The GI50 [36] was > 100 µM (inactive), the GI50 [37] was > 100 µM (inactive) and the GI50 [38] was > 100 µM (inactive). The GI50 [39] was > 100 µM (inactive), the GI50 [40] was > 100 µM (inactive) and the GI50 [41] was > 100 µM (inactive). For the same compound, the GI50 [42] was > 100 µM (inactive), the GI50 [43] was > 100 µM (inactive) and the GI50 [44] was > 100 µM (inactive). For the same compound, the GI50 [45] was > 100 µM (inactive), the GI50 [46] was > 100 µM (inactive) and the GI50 [47] was > 100 µM (inactive). The GI50 [48] was > 100 µM (inactive), the GI50 [49] was > 100 µM (inactive) and the GI50 [50] was > 100 µM (inactive). The GI50 [51] was > 100 µM (inactive), the GI50 [59] was > 100 µM (inactive) and the GI50 [52] was > 100 µM (inactive). The GI50 [53] was > 100 µM (inactive), the GI50 [54] was > 100 µM (inactive) and the GI50 [55] was > 100 µM (inactive). For the same compound, the GI50 [56] was > 100 µM (inactive) and the GI50 [57] was > 100 µM (inactive).
